# Test results from ChEMBL document CHEMBL2429750, “Inhibitors of tick-borne flavivirus reproduction from structure-based virtual screening” (ACS Med Chem Lett, 2013).
# Legend:
# [1] = Chronic cytotoxicity against PEK cells after 7 days by neutral red staining assay; format: cell-based, Sus scrofa; details: pig
# Powassan virus = experiment: Antiviral activity against Powassan virus 24 infected in PEK cells assessed as inhibition of viral plaque formation after 1 hr by gentian violet staining assay; format: functional, cell-based; details: for IC50: Powassan virus, 24, PEK
# [2] = tested on: Tick-borne encephalitis virus; experiment: Antiviral activity against Tick-borne encephalitis virus Absettarov infected in PEK cells assessed as inhibition of viral plaque formation after 1 hr by gentian violet staining assay; format: functional, cell-based
# [3] = tested on: Omsk hemorrhagic fever virus; experiment: Antiviral activity against Omsk hemorrhagic fever virus Nikitina infected in PEK cells assessed as inhibition of viral plaque formation after 1 hr by gentian violet staining assay; format: functional, cell-based
# [4] = Acute cytotoxicity against PEK cells after 24 hrs by neutral red staining assay; format: cell-based, Sus scrofa; details: pig
Structure (SMILES),CC50 at 168 h [1],inhibition (Powassan virus),IC50 (Powassan virus),IC50 [2],inhibition [2],IC50 [3],inhibition [3],CC50 at 24 h [4]
COc1ccccc1NC(=O)C1=C(C)NC(SCC(=O)Nc2ccc(Br)cc2)=C(C#N)C1c1ccc(C)o1 (racemic),34 µM,Dose-dependent effect,> 10 µM,> 10 µM,Dose-dependent effect,3.7 µM,Dose-dependent effect,248 µM
CC1=C(C(=O)Nc2ccccc2)C(c2cccs2)C(C#N)=C(SCC(=O)c2ccccc2)N1 (racemic),17 µM,Dose-dependent effect,> 10 µM,> 10 µM,Dose-dependent effect,> 10 µM,Dose-dependent effect,> 250 µM
COc1ccccc1NC(=O)C1=C(C)NC(SCC(=O)Nc2ccc(C)cc2)=C(C#N)C1c1cccs1 (racemic),97 µM,Dose-dependent effect,> 10 µM,> 10 µM,Dose-dependent effect,5.5 µM,Dose-dependent effect,> 250 µM
CC1=C(C(=O)Nc2ccc(Cl)cc2)C(c2ccccc2)C(C#N)=C(SCC(=O)Nc2cccc(C)c2)N1 (racemic),41 µM,Dose-dependent effect,> 10 µM,2 µM,Dose-dependent effect,> 10 µM,Dose-dependent effect,> 250 µM
CC1=C(C(=O)Nc2ccc(Cl)cc2)C(c2ccccc2)C(C#N)=C(SCC(=O)Nc2ccc(Oc3ccccc3)cc2)N1 (racemic),38 µM,Dose-dependent effect,> 10 µM,2.8 µM,Dose-dependent effect,> 10 µM,Dose-dependent effect,> 250 µM
CC1=C(C(=O)Nc2ccc(Cl)cc2)C(c2ccccc2)C(C#N)=C(SCC(=O)Nc2ccc3ccccc3c2)N1 (racemic),20 µM,Dose-dependent effect,> 10 µM,> 10 µM,Dose-dependent effect,> 10 µM,Dose-dependent effect,111 µM
COc1ccc(NC(=O)CSC2=C(C#N)C(c3ccccc3F)C(C(=O)Nc3ccccc3C)=C(C)N2)cc1 (racemic),89 µM,Dose-dependent effect,> 10 µM,> 10 µM,Dose-dependent effect,7.2 µM,Dose-dependent effect,> 250 µM
CCc1ccc(NC(=O)CSC2=C(C#N)C(c3ccc(O)c(OC)c3)C(C(=O)Nc3ccccc3)=C(C)N2)cc1 (racemic),31 µM,Dose-dependent effect,> 10 µM,> 10 µM,Dose-dependent effect,1.8 µM,Dose-dependent effect,114 µM
COc1ccc(N2CSC3=C(C#N)C(c4ccc(OCc5ccc(Cl)cc5)cc4)CC(=O)N3C2)c(OC)c1 (racemic),39 µM,Dose-dependent effect,1.3 µM,0.07 µM,Dose-dependent effect,> 10 µM,Dose-dependent effect,109 µM
CCOc1ccccc1N1CSC2=C(C#N)C(c3cccc(OCc4ccccc4)c3)CC(=O)N2C1 (racemic),116 µM,Dose-dependent effect,2.2 µM,2.6 µM,Dose-dependent effect,> 10 µM,Dose-dependent effect,> 250 µM
CCc1ccc(N2CSC3=C(C#N)C(c4cccc(OCc5ccccc5)c4)CC(=O)N3C2)cc1 (racemic),236 µM,Dose-dependent effect,> 10 µM,> 10 µM,Dose-dependent effect,> 11.9 µM,Dose-dependent effect,> 250 µM
CCCCc1ccc(N2CSC3=C(C#N)C(c4ccc(OCc5ccccc5)cc4)CC(=O)N3C2)cc1 (racemic),35 µM,Dose-dependent effect,> 10 µM,1.9 µM,Dose-dependent effect,> 10 µM,Dose-dependent effect,> 250 µM
COc1ccc(N2CSC3=C(C#N)C(c4ccc(OCc5ccccc5)c(OC)c4)CC(=O)N3C2)cc1 (racemic),53 µM,Dose-dependent effect,> 10 µM,0.09 µM,Dose-dependent effect,> 10 µM,Dose-dependent effect,> 250 µM
CCCCc1ccc(NC(=O)CSC2=C(C#N)C(c3ccco3)C(C(=O)Nc3ccc(OCC)cc3)=C(C)N2)cc1 (racemic),14 µM,Dose-dependent effect,> 10 µM,2.5 µM,Dose-dependent effect,> 10 µM,Dose-dependent effect,64 µM
CCc1ccc(NC(=O)CSC2=C(C#N)C(c3ccco3)C(C(=O)Nc3ccc(S(N)(=O)=O)cc3)=C(C)N2)cc1 (racemic),153 µM,Dose-dependent effect,> 10 µM,> 10 µM,Dose-dependent effect,10 µM,Dose-dependent effect,> 250 µM
CCc1ccc(NC(=O)CSC2=C(C#N)C(c3ccco3)C(C(=O)Nc3ccc(Cl)cc3)=C(C)N2)cc1 (racemic),27 µM,Dose-dependent effect,> 10 µM,> 10 µM,Dose-dependent effect,> 10 µM,Dose-dependent effect,26 µM
CCc1ccc(NC(=O)CSC2=C(C#N)C(c3ccco3)C(C(=O)Nc3ccc(CC)cc3)=C(C)N2)cc1 (racemic),33 µM,Dose-dependent effect,> 10 µM,> 10 µM,Dose-dependent effect,> 10 µM,Dose-dependent effect,57 µM
CC1=C(C(=O)Nc2ccccc2C)C(c2ccco2)C(C#N)=C(SCC(=O)Nc2ccc3ccccc3c2)N1 (racemic),> 250 µM,Dose-dependent effect,> 10 µM,> 10 µM,Dose-dependent effect,5.3 µM,Dose-dependent effect,> 250 µM
CC1=C(C(=O)Nc2ccccc2)C(c2ccco2)C(C#N)=C(SCC(=O)Nc2ccc(C)c(C)c2)N1 (racemic),19 µM,Dose-dependent effect,> 10 µM,> 10 µM,Dose-dependent effect,3.2 µM,Dose-dependent effect,> 250 µM
CC1=C(C(=O)Nc2c(C)cccc2C)C(c2ccco2)C(C#N)=C(SCC(=O)Nc2nc3ccccc3s2)N1 (racemic),7 µM,Dose-dependent effect,> 10 µM,> 10 µM,Dose-dependent effect,7.1 µM,Dose-dependent effect,> 250 µM
CC1=C(C(=O)Nc2nc3ccccc3s2)C(c2ccco2)C(C#N)=C(SCC(=O)Nc2nc3ccccc3s2)N1 (racemic),52 µM,Dose-dependent effect,> 10 µM,> 10 µM,Dose-dependent effect,2.5 µM,Dose-dependent effect,> 250 µM
CC1=C(C(=O)Nc2nc3ccccc3s2)C(c2ccco2)C(C#N)=C(SCC(=O)Nc2ccc(C(C)C)cc2)N1 (racemic),29 µM,Dose-dependent effect,> 10 µM,> 10 µM,Dose-dependent effect,2.5 µM,Dose-dependent effect,> 250 µM
